Legend:
HepG2 cells [1] = assay: Transwell migration assay; assay type: cell-based; conditions: Homo sapiens, 48 h, vs ethanol control, read-out: inhibition of cell migration
Protocol: (§1) The transwell migration and invasion experiments were conducted using a 24-well plate (cat# 3422, Corning). HepG2 and SMMC-7721 cells (5 × 10^4) were suspended in 100 µL of medium supplied with ethanol, 150 and 300 µM of BCP and added to the top chamber, while 600 µL of complete medium containing 10% FBS was added into the lower chamber. After 48 h of incubation at 37°C, the cells from the top chamber were carefully removed using a cotton swab, while the cells penetrated through the membrane were fixed using 600 µL of 70% methanol for 15 min. To stain the cells, 600 µL of 0.2% crystal violet was used to treat the Transwell inserts for 10 min, followed by washing and drying, and the membranes of the inserts were photographed using an inverted microscope (Leica DM13000 B). The positive staining area was calculated using ImageJ software.

HepG2 cells [2] = assay: Matrigel transwell invasion assay; assay type: cell-based, human; conditions: 48 h, vs control
Protocol: as §1
(§2) For invasion assay, Matrigel (Corning, cat# 356234) was used to precoat the top chamber. Cells (8 × 10^4) were added to the top chamber and the following procedure was the same as the migration assay described above.

SMMC-7721 cells [3] = assay: Matrigel transwell invasion assay; assay type: cell-based, human; conditions: 48 h, vs control
Protocol: as §1, §2

HepG2 cells [4] = assay: Colony formation assay with ectopic PGF expression; assay type: cell-based, human
Description: The placental growth factor (PGF) coding sequence was amplified using gene specific primers and then subcloned into a lentiviral vector pSL4-Flag expressing the puromycin resistance gene to generate pSL4-Flag-PGF vector with a CMV promoter driving PGF expression. The primers used to amplify the PGF coding sequence, check the amplified DNA fragment and verify its ectopic expression are listed in Supplementary Table S1. Lentiviruses carrying pSL4-Flag-PGF and an empty pSL4-Flag vector were produced and used to infect HCC cells based on our previously reported procedure ([Wan et al., 2012]). Ectopic PGF expression was achieved by infecting HCC cells with pSL4-Flag-PGF lentivirus, and the control cells were produced by infecting HCC cells using lentivirus carrying the empty pSL4-Flag-vector.
HepG2 cells were cultured overnight into 12-well plates with a density of 1×10^3 cells/well. The cells were then individually infected by pSL4-Flag-vector and pSL4-Flag-PGF lentiviruses. After 24 h, the cells were cultured in a complete medium containing 150 µM of BCP or an equal volume of ethanol for 10 days. The plates were washed using ice-cold PBS three times and cells were fixed using 70% ice-cold methanol for 20 min. […] The stained wells were photographed and clonogenicity was analyzed using ImageJ software.

SMMC-7721 cells [5] = assay: Transwell migration assay; assay type: cell-based, human; conditions: 48 h, vs ethanol control
Protocol: as §1

HepG2 cells [6] = assay: RT-qPCR of MAPK signaling pathway genes; assay type: cell-based, human; conditions: BCP-treated HepG2 cells vs control cells
Protocol: HepG2 cells were treated by 150 µM BCP or ethanol for 24 h, followed by total RNA extraction using the TRIzol reagent (Thermo Fisher Scientific, cat#15596026). The quality and concentration of RNA were examined by MOPS RNA electrophoresis and Eppendorf BioSpectrometer. The transcriptome analysis was performed by BGI-Wuhan China. The RNA-seq dataset of this study is accessible in the Gene Expression Omnibus (GEO) with an access number of GSE276099. The sequence library for each sample was prepared using the BGISEQ-500 platform with a 50-bp single-end (SE50) format. HISAT (v2.2.1) was used to align the clean reads to the reference genome and alignment of the clean reads to the reference genes was carried out using Bowtie2 (v2.4.5) ([Langmead and Salzberg, 2012]; [Kim et al., 2015]). Gene expression levels were calculated by RSEM (v1.3.1) ([Li and Dewey, 2011]). Analysis of differential gene expression was performed using edgeR in the Bioconductor software package ([Robinson et al., 2010]). Using a standard protocol, the RNA samples were also examined by reverse transcription and quantitative polymerase chain reaction (RT-qPCR). In brief, for reverse transcription, total RNA (1 μg) and gDNA wiper Mix were incubated at 42°C for 2 min. The samples were immediately incubated with a master mix containing 10 pmol/μL of poly (dT) primers at 37°C for 15 min and 85°C for 5 s. […]

C=C1CC/C=C(\C)CC[C@@H]2[C@@H]1CC2(C)C [BCP, β-caryophyllene]
inhibition at 150 µM (HepG2 cells [1]; HepG2, 150 µM): 49% | inhibition at 300 µM (HepG2 cells [1]; HepG2, 300 µM): 75.6% | decrease of Matrigel infiltration (invasion) (HepG2 cells [2]; HepG2, 150 µM): 46.3% | decrease of Matrigel infiltration (invasion) (HepG2 cells [2]; HepG2, 300 µM): 70.03% | decrease of Matrigel infiltration (invasion) (SMMC-7721 cells [3]; SMMC-7721, 150 µM): 17.67% | decrease of Matrigel infiltration (invasion) (SMMC-7721 cells [3]; SMMC-7721, 300 µM): 49.64% | colony formation (HepG2 cells [4]; HepG2 carrying pSL4-vector, 150 µM BCP 10 days, compared to control without BCP): significantly decreased colonies | colony formation (HepG2 cells [4]; HepG2 expressing ectopic PGF vs empty vector, same BCP treatment (150 µM, 10 days)): more colonies | reduction of cell migration (SMMC-7721 cells [5]; SMMC-7721, 150 µM): 18.06% | reduction of cell migration (SMMC-7721 cells [5]; SMMC-7721, 300 µM): 52.19% | RT-qPCR verification of differential expression of NR4A1, CSF1R, PGF, ARTN, CACNA1E (HepG2 cells [6]): confirmed

Reference: article PMC11671526, “β-caryophyllene sensitizes hepatocellular carcinoma cells to chemotherapeutics and inhibits cell malignancy through targeting MAPK signaling pathway” (Frontiers in Pharmacology, 2024)
